Source: patent US20020028807A1, “Non-nucleoside reverse transcriptase inhibitors” (priority 2000, published 2002)

What was measured:
[1] = target: T1, HIV-1 RT wild-type (WT) (Human immunodeficiency virus type 1 group M subtype B, UniProt P03366); test: Reverse transcriptase (RT) assay, wild-type enzyme; format: biochemical
T1 construct: an HIV RT clone pKRT2 containing only the RT p66 gene regulated by the lac operon/trc promoter; made in house; host or cells: E. coli JM109, vector pKK233-2
Source text: (§1) Among the enzymes for which Human Immunodeficiency Virus (HIV-1) encodes is a reverse transcriptase (1), so-named because it transcribes a DNA copy from an RNA template. This activity can be quantitatively measured in a cell-free enzyme assay and is based upon the observation that reverse transcriptase is able to use a synthetic template poly r(C) primed with a biotinylated oligo d(G) to transcribe a radio-labelled DNA strand utilising 3H-dGTP as a substrate. The assay described below utilises the wild-type enzyme (which is the predominant form of the enzyme observed in patients infected with HIV-1) and can also be used with mutant RT enzymes (for example, Y181C, prepared by site-directed mutagenesis in which the tyrosine residue at codon 181 has been replaced by a cysteine residue) in analogous assay conditions. This assay allows compounds to be evaluated for their effectiveness at inhibiting the mutant enzymes.
(§2) Some HIV-1 IIIB clone BH10 RT mutants were provided by Dr. C.-K. Shih (Boehringer Ingelheim Pharmaceutials Inc., U.S.A.) in the vector pKK233-2 (Pharmacia). Briefly an HIV RT clone pKRT2 containing only the RT p66 gene regulated by the lac operon/trc promoter was obtained from Dr. W. Summers (Yale University) (2). A variety of specific amino acid substitutions were introduced into the wild-type RT gene by site-directed mutagenesis. RT clones were subcloned into the pKK233-2 bacterial expression vector. Clones provided included wild-type, Val106Ala, Tyr181Cys, Tyr188Cys, Tyr188Leu, Gly190Ala and Pro236Leu. Others were made in-house by site-directed mutagenesis of the pKK233-2 RT clones including Lys103Asn, Lys103Asn/Tyr181Cys, Lys103Asn/Leu100Ile, Lys103Asn/Pro225His, and Lys103Asn/Val108Ile.
(§3) Purification of recombinant reverse transcriptase was performed using a combination of methods previously described (3). A single colony from a fresh plate of transformed JM109 cells was used to initiate growth of a pre-culture grown o/n at 37° C. Two liters of growth medium were inoculated with this pre-culture. At OD600˜1.5 (5-6 h at 37° C.), RT gene expression was induced with IPTG (1 mM final), and the fermentation was continued for a few more hours at 37° C. After centrifugation, supernatants were discarded while cell pellets were pooled and stored at −80° C. until purification. Cells were thawed at 4° C. overnight and suspended in lysis buffer (MES 50 mM pH 6, EDTA 1 mM, 10% v/v glyerol, 0.02% w/v OBG, 0.02% w/v sodium azide). Lysozyme was added and the mixture was incubated on ice for 40 minutes. After homogenization using a bounce in presence of lysozyme and sonication, the cells were centrifuged for 30 minutes. Supernatant (S1) was saved and stored at 4° C. The centrifuged pellet was resuspended in extraction buffer (MES 50 mM pH 6, KPO4 50 mM pH 6, KCl 100 mM, 10% v/v glycerol, 0.02% w/v OBG, 0.02% w/v sodium axide) and stirred for 30 minutes at 4° C. This second mixture was centrifuged again and the supernatant (S2) was saved. The above procedure was repeated 2 more times saving supernatants S3 and S4 and one last extraction was performed overnight (S5). Polymin P (0.005% final) was added to the combined supernatants to remove nucleic acids. This solution was stirred for 75 minutes at 4° C. and centrifuged for 1 h. The supernatant (SS1) was precipitated on ice with 20% w/v ammonium sulfate and stirred for 1 h at 4° C. The mixture was then centrifuged and the resulting supernatant (SS2) was precipitated with additional 40% w/v ammonium sulfate (60% total), stirred for 1 h and centrifuged again. The final pellet (P1) was stored overnight at 4° C. before undergoing purification the following day. All steps of the purification were performed at 4° C. unless otherwise stated.
(§4) Pellet (P1) was resuspended into MES 50 mM pH 6, KPO4 10 mM pH 6, KCl 100 mM, 10% v/v glycerol, 0.02% w/v OBG, 0.02% w/v sodium azide. The suspension was dialysis against the same buffer overnight using 12-14 kD MWCO dialysis tubing. […]

[2] = target: T2, HIV-1 RT K103N (Human immunodeficiency virus type 1 group M subtype B, UniProt P03366, K702N); test: Reverse transcriptase (RT) assay, K103N mutant; format: biochemical
T2 construct: an HIV RT clone pKRT2 containing only the RT p66 gene regulated by the lac operon/trc promoter; made in house; host or cells: E. coli JM109, vector pKK233-2
Source text: as §1, §2, §3, §4

[3] = target: T3, HIV-1 RT Y181C (Human immunodeficiency virus type 1 group M subtype B, UniProt P03366, Y780C); test: Reverse transcriptase (RT) assay, Y181C mutant; format: biochemical
T3 construct: an HIV RT clone pKRT2 containing only the RT p66 gene regulated by the lac operon/trc promoter; made in house; host or cells: E. coli JM109, vector pKK233-2
Source text: as §1, §2, §3, §4

[4] = target: T4, HIV-1 RT V106A (Human immunodeficiency virus type 1 group M subtype B, UniProt P03366, V705A); test: Reverse transcriptase (RT) assay, V106A mutant; format: biochemical
T4 construct: an HIV RT clone pKRT2 containing only the RT p66 gene regulated by the lac operon/trc promoter; made in house; host or cells: E. coli JM109, vector pKK233-2
Source text: as §1, §2, §3, §4

[5] = target: T5, HIV-1 RT Y188L (Human immunodeficiency virus type 1 group M subtype B, UniProt P03366, Y787L); test: Reverse transcriptase (RT) assay, Y188L mutant; format: biochemical
T5 construct: an HIV RT clone pKRT2 containing only the RT p66 gene regulated by the lac operon/trc promoter; made in house; host or cells: E. coli JM109, vector pKK233-2
Source text: as §1, §2, §3, §4

[6] = target: T6, HIV-1 RT K103N/Y181C (Human immunodeficiency virus type 1 group M subtype B, UniProt P03366, K702N/Y780C); test: Reverse transcriptase (RT) assay, K103N/Y181C mutant; format: biochemical
T6 construct: an HIV RT clone pKRT2 containing only the RT p66 gene regulated by the lac operon/trc promoter; made in house; host or cells: E. coli JM109, vector pKK233-2
Source text: as §1, §2, §3, §4

[7] = target: T7, HIV-1 RT K103N/P225H (Human immunodeficiency virus type 1 group M subtype B, UniProt P03366, K702N/P824H); test: Reverse transcriptase (RT) assay, K103N/P225H mutant; format: biochemical
T7 construct: an HIV RT clone pKRT2 containing only the RT p66 gene regulated by the lac operon/trc promoter; made in house; host or cells: E. coli JM109, vector pKK233-2
Source text: as §1, §2, §3, §4

[8] = target: T8, HIV-1 RT K103N/V108I (Human immunodeficiency virus type 1 group M subtype B, UniProt P03366, K702N/V707I); test: Reverse transcriptase (RT) assay, K103N/V108I mutant; format: biochemical
T8 construct: an HIV RT clone pKRT2 containing only the RT p66 gene regulated by the lac operon/trc promoter; made in house; host or cells: E. coli JM109, vector pKK233-2
Source text: as §1, §2, §3, §4

[9] = target: T9, HIV-1 RT K103N/L100I (Human immunodeficiency virus type 1 group M subtype B, UniProt P03366, K702N/L699I); test: Reverse transcriptase (RT) assay, K103N/L100I mutant; format: biochemical
T9 construct: an HIV RT clone pKRT2 containing only the RT p66 gene regulated by the lac operon/trc promoter; made in house; host or cells: E. coli JM109, vector pKK233-2
Source text: as §1, §2, §3, §4

[10] = tested on: HIV coding for wild-type reverse transcriptase (WT RT); test: ELISA (p24) assay of HIV replication in C8166 cell culture, wild-type RT virus; format: cell-based, HIV-1; settings: Human immunodeficiency virus 1, C8166, 72 h, read-out: EC50 WT RT
Method: Compounds of the invention were tested for their ability to inhibit HIV replication in cell culture in a 96-well plate assay. Complete RPMI 1640, consisting of RPMI 1640+10% fetal bovine serum, 10 μg/ml gentamycin and 10 μM β-mercaptoethanol was used for dilution of the compound as well as cell growth medium. The T lymphocyte cell line C8166 was infected at a multiplicity of infection of 0.001 with viruses coding for wild-type and mutant reverse transcriptase. Cells were then incubated for three days in the presence of serial dilutions of the compounds of the invention. The supernatant was pooled from eight replica wells and the concentration of extracellular p24 was determined using a commercially available HIV-1 p24 antigen assay kit (Beckman-Coulter®). The level of inhibition (% inhibition) was calculated with the following equation: [formula]

| Structure (SMILES) | IC50 [1] | IC50 [2] | IC50 [3] | IC50 [4] | IC50 [5] | IC50 [6] | IC50 [7] | IC50 [8] | IC50 [9] | EC50 [10] |
| --- | --- | --- | --- | --- | --- | --- | --- | --- | --- | --- |
| Cc1ccnc2c1NC(=O)c1cc(CCOc3ccnc4ccccc34)cnc1N2C1CC1 [compound 3, 11-(Cyclopropyl)-5,11-dihydro-4-methyl-8-{2-(4-quinolinyloxy)ethyl}-6H-dipyrido[3,2-b:2′,3′-e][1,4]diazepin-6-one] | 16.5 nM | 45 nM | 73 nM | 79 nM | 3240 nM | 612 nM | 56 nM | 47 nM | 124 nM | 1.3 nM |
| CCN1c2ncc(CCOc3ccnc4ccccc34)cc2C(=O)Nc2c(C)ccnc21 [compound 8, 5,11-Dihydro-11-ethyl-4-methyl-8-{2-(4-quinolinyloxy)ethyl}-6H-dipyrido[3,2-b:2′,3′-e][1,4]diazepin-6-one] | 10 nM | 37 nM | 43 nM | 190 nM | 7510 nM | 301 nM | 67 nM | 63 nM | 135 nM | 0.93 nM |
| Cc1cc(F)nc2c1NC(=O)c1cc(CCOc3ccnc4ccccc34)cnc1N2C1CC1 [compound 5, 11-(Cyclopropyl)-5,11-dihydro-2-fluoro-4-methyl-8-{2-(4-quinolinyloxy)-ethyl}-6H-dipyrido[3,2-b:2′,3′-e][1,4]diazepin-6-one] | 19 nM | 37.5 nM | 76 nM | 61 nM | 2540 nM | 536 nM | 38 nM | 38 nM | 98 nM | 0.83 nM |
| CCN1c2ncc(CCOc3ccnc4ccccc34)cc2C(=O)Nc2c(C)cc(F)nc21 [compound 7, 5,11-Dihydro-11-ethyl-2-fluoro-4-methyl-8-{2-(4-quinolinyloxy)ethyl}-6H-dipyrido[3,2-b:2′,3′-e][1,4]diazepin-6-one] | 9.8 nM | 26 nM | 38 nM | 74 nM | 4320 nM | 199 nM | 46 nM | 45 nM | 98 nM | 1.1 nM |
| CCN1c2ncc(CCOc3ccnc4ccccc34)cc2C(=O)Nc2c(C)cc(Cl)nc21 [compound 1, 2-Chloro-5,11-dihydro-11-ethyl-4-methyl-8-{2-(4-quinolinyloxy)ethyl}-6H-dipyrido[3,2-b:2′,3′-e][1,4]diazepin-6-one] | 10.5 nM | 19 nM | 20 nM | 132 nM | 2740 nM | 52 nM | 31.2 nM | 29 nM | 28.5 nM | 2.6 nM |
| CN1C(=O)c2cc(CCOc3ccnc4ccccc34)cnc2N(C2CC2)c2nc(Cl)ccc21 [compound 6, 2-Chloro-11-cyclopropyl-5,11-dihydro-5-methyl-8-{2-(4-quinolinyloxy)-ethyl}-6H-dipyrido[3,2-b:2′,3′-e][1,4]diazepin-6-one] | 25 nM | – | – | – | – | – | – | – | – | – |
| CCN1C(=O)c2cc(CCOc3cc[n+]([O-])c4ccccc34)cnc2N(CC)c2ncccc21 [compound 27, 5,11-Dihydro-5,11-diethyl-8-{2-{(1-oxido-4-quinolinyl)oxy}ethyl}-6H-dipyrido[3,2-b:2′,3′-e][1,4]diazepin-6-one] | 38 nM | – | – | 2270 nM | 5340 nM | 299 nM | – | – | – | – |
| Cc1ccnc2c1NC(=O)c1cc(CCOc3cc[n+]([O-])c4ccccc34)cnc1N2C1CC1 [compound 15] | 61 nM | 66 nM | 226 nM | 206 nM | > 10000 nM | 1520 nM | 93 nM | 215 nM | 270 nM | – |
| CCN1c2ncc(CCOc3cccc4c3ccc[n+]4[O-])cc2C(=O)Nc2c(C)cc(F)nc21 [compound 23, 5,11-Dihydro-11-ethyl-2-fluoro-4-methyl-8-{2-{(1-oxido-5-quinolinyl)-oxy}ethyl}-6H-dipyrido[3,2-b:2′,3′-e][1,4]diazepin-6-one] | 6.1 nM | – | – | 105 nM | 5610 nM | 247 nM | – | – | – | – |
| CN1C(=O)c2cc(CCOc3cc[n+]([O-])c4ccccc34)cnc2N(C2CC2)c2nc(Cl)ccc21 [compound 10, 2-Chloro-11-cyclopropyl-5,11-dihydro-5-methyl-8-{2-{(1-oxido-4-quinolinyl)oxy}ethyl}-6H-dipyrido[3,2-b:2′,3′-e][1,4]diazepin-6-one] | 41 nM | 67 nM | 206 nM | 1370 nM | 1420 nM | 710 nM | – | 255 nM | 229 nM | – |
| CCN1c2ncc(CCOc3cc[n+]([O-])c4ccccc34)cc2C(=O)Nc2c(C)cc(Cl)nc21 [compound 14, 2-Chloro-5,11-dihydro-11-ethyl-4-methyl-8-{2-{(1-oxido-4-quinolinyl)-oxy}ethyl}-6H-dipyrido[3,2-b:2′,3′-e][1,4]diazepin-6-one] | 15 nM | 19 nM | 28 nM | 77 nM | 2300 nM | 61 nM | 30 nM | 59 nM | 24 nM | 0.67 nM |
| CCN1c2nc(Cl)ccc2NC(=O)c2cc(CCOc3cc[n+]([O-])c4ccccc34)cnc21 [compound 22, 2-Chloro-5,11-dihydro-11-ethyl-8-{2-{(1-oxido-4-quinolinyl)-oxy}ethyl}-6H-dipyrido[3,2-b:2′,3′-e][1,4]diazepin-6-one] | 45 nM | – | – | 2490 nM | 2990 nM | 336 nM | – | – | – | – |
